Results: ChEMBL document CHEMBL5230153, “Bitopic Sigma 1 Receptor Modulators to Shed Light on Molecular Mechanisms Underpinning Ligand Binding and Receptor Oligomerization” (J Med Chem, 2021)
Calls of active or inactive are those of the source. The rule behind the calls is not given here.

Legend:
[1] = biological target: Sigma non-opioid intracellular receptor 1 (Cavia porcellus, UniProt Q60492); experiment: Displacement of [3H](+)-pentazocine from sigma 1 receptor in guinea pig brain membranes measured after 120 mins by scintillation counting method; format: cell membranes, Membrane
PC-12 [2] = experiment: Neuroprotective activity in rat PC-12 cells assessed as increase in NGF-mediated neurite outgrowth by measuring differentiated cells at 5 to 250 nM in presence of 1 uM NE-100 incubated for 72 hrs by bright-field microscopic analysis; format: functional, cell-based; conditions: dose 5-250 nM
PC-12 [3] = experiment: Neuroprotective activity in rat PC-12 cells assessed as increase in NGF-mediated neurite outgrowth by measuring differentiated cells at 5 to 250 nM incubated for 72 hrs by bright-field microscopic analysis; format: functional, cell-based; conditions: dose 5-250 nM
PC-12 [4] = experiment: Cytotoxicity against rat PC-12 cells assessed as cell death at 0.25 uM after 72 hrs incubation by LDH-based cytotoxic assay; format: toxicity; conditions: pc-12, 72 h
[5] = biological target: Sigma non-opioid intracellular receptor 1 (Cavia porcellus) (UniProt Q60492); experiment: Displacement of [3H](+)-pentazocine from sigma 1 receptor in guinea pig brain membranes measured after 120 mins by scintillation counting method relative to control; format: cell membranes; conditions: Membrane
Chain of Sigma non-opioid intracellular receptor 1 (Cavia porcellus) (Q60492 whole entry): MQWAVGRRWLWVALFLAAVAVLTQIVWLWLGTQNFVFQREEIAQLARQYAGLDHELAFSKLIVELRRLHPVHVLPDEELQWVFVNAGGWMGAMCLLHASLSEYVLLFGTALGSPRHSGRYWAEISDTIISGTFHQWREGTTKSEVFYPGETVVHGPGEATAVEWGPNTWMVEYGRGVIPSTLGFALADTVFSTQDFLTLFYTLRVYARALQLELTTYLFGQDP

Chain of Sigma non-opioid intracellular receptor 1 (Q60492 whole entry): as above

| SMILES | Ki [1] [nM] | Activity (PC-12 [2]) | Activity (PC-12 [3]) | Activity (PC-12 [4]) | inhibition [5] [%] |
| --- | --- | --- | --- | --- | --- |
| C[C@H](CCN1CCC(NC(=O)c2ccccc2C(=O)NC2CCN(CC[C@@H](C)c3ccc(-c4ccccc4)cc3)CC2)CC1)c1ccc(-c2ccccc2)cc1 | 134 |  |  |  |  |
| C[C@H](CCN1CCC(NC(=O)CCOCCOCCOCCOCCOCCOCCOCCOCCOCCC(=O)NC2CCN(CC[C@@H](C)c3ccc(-c4ccccc4)cc3)CC2)CC1)c1ccc(-c2ccccc2)cc1 | 799 |  |  |  |  |
| C[C@H](CCN1CCC(NC(=O)COCCOCC(=O)NC2CCN(CC[C@@H](C)c3ccc(-c4ccccc4)cc3)CC2)CC1)c1ccc(-c2ccccc2)cc1 | 2.6 | inactive | Active | Non-Toxic |  |
| C[C@H](CCN1CCC(NC(=O)COCC(=O)NC2CCN(CC[C@@H](C)c3ccc(-c4ccccc4)cc3)CC2)CC1)c1ccc(-c2ccccc2)cc1 |  |  |  |  | 0 |
| CC(=O)NC1CCN(CC[C@@H](C)c2ccc(-c3ccccc3)cc2)CC1 | 11 | inactive | Active | Non-Toxic |  |
| C[C@H](CCN1CCC(NC(=O)CC(=O)NC2CCN(CC[C@@H](C)c3ccc(-c4ccccc4)cc3)CC2)CC1)c1ccc(-c2ccccc2)cc1 | 200 | inactive | Active | Non-Toxic |  |
| C[C@H](CCN1CCC(NC(=O)CCCC(=O)NC2CCN(CC[C@@H](C)c3ccc(-c4ccccc4)cc3)CC2)CC1)c1ccc(-c2ccccc2)cc1 | 622 |  |  |  |  |
| C[C@H](CCN1CCC(NC(=O)CCCCCC(=O)NC2CCN(CC[C@@H](C)c3ccc(-c4ccccc4)cc3)CC2)CC1)c1ccc(-c2ccccc2)cc1 | 1300 |  |  |  |  |
| C[C@H](CCN1CCC(NC(=O)COCCOCCOCCOCCNC(=O)c2ccccc2)CC1)c1ccc(-c2ccccc2)cc1 | 1600 |  |  |  |  |
| C[C@H](CCN1CCCCC1)c1ccc(-c2ccccc2)cc1 |  | inactive | Active | Non-Toxic |  |
